Laboratory results taken from patent US11793880B2, “Conjugates of quaternized tubulysin compounds” (Seagen Inc., priority 2015, dated 2023).

Assays:
Assay type in all cases: cell-based
[1] = tested on: Karpas299, L540cy, L428, HL60, HL60/RV cell lines; assay: In vitro assays - tubulysin free drugs, statements across the cell line panel; conditions: for potency relative to tubulysin M (7), in words: Table 2 cell lines, 96 hour exposure
Method: (§1) In vitro assays. Cells cultured in log-phase growth were seeded for 24 h in 96-well plates containing 150 μL RPMI 1640 supplemented with 20% FBS. Serial dilutions of antibody-drug conjugates in cell culture media were prepared at 4× working concentrations; 50 μL of each dilution was added to the 96-well plates. Following addition of ADC, cells were incubated with test articles for 4 d at 37° C. After 96 h, growth inhibition was assessed by CellTiter-Glo® (Promega, Madison, WI) and luminescence was measured on a plate reader. The IC50 value, determined in triplicate, is defined here as the concentration that results in a 50% reduction in cell growth relative to untreated controls.
(§2) In vitro assays—tubulysin free drugs. Cells were treated for 96 hours with tubulysin ether analogs (40-42) or tubulysin M (7), then assessed for viability as described in the methods.
The ethyl ether and tubulysin M maintained the highest level of potency in the context of MDR+L428 and HL60/RV cell lines.
(§3) The tubulysin ester analogs (133-137) and unsaturated ether analogs (176-179) were tested in vitro for potency relative to tubulysin M (7), following a 96 hour exposure. As shown by IC50 values (nM) of Table 2, Tubulysin esters 133-136 performed comparably to tubulysin M, with similar potencies across of the cell lines.

L540cy, HL = assay: In vitro assays - tubulysin free drugs, CellTiter-Glo growth inhibition; conditions: L540cy, 96 h
Method: as §1, §2, §3
(§4) A series of analogues of the ethyl ether tubulysin compound TubOEt (41) were synthesized on solid phase lanterns that maintain the ethyl ether substitution, while either varying the residue at the Ile position (203-215) or the Mep position (216-221). Following cleavage from the solid phase, the analogues were obtained in >85% purity and tested without further purification. The compounds were tested in vitro for potency relative to a sample of TubOEt synthesized in parallel on a lantern (41-lantern), following a 96 hour exposure, with IC5O values expressed in nM (Table 3). While in many cases an attenuation in activity was observed relative to 41-lantern, some well-tolerated substitutions were found. […] While this stereochemical preference is not observed when Ile is replaced with O-methyl threonine (207) or O-methyl allothreonine (206), bulkier substituents led to a greater differentiation. […] Replacement of the Mep residue was generally less-well tolerated.

HL60, AML = assay: as above; conditions: Homo sapiens, HL-60, 96 h
Method: as §1, §2, §3, §4

HL60/RV, MDR + AML = assay: as above; conditions: Homo sapiens, HL-60, 96 h
Method: as §1, §2, §3, §4

L428, MDR + HL = assay: as above; conditions: Homo sapiens, L-428, 96 h, free drug
Method: as §1, §2, §3

Karpas299, ALCL = assay: as above; conditions: Homo sapiens, KARPAS-299, 96 h, free drug
Method: as §1, §2, §3

U266 MM = assay: In vitro assays - TubOEt analogues, CellTiter-Glo growth inhibition; conditions: Homo sapiens, U-266; Table 3; lantern-made analogues >85% purity, 96 hour exposure
Method: as §1, §4

HepG2, HCC = assay: as above; conditions: Homo sapiens, Table 3, lantern-made analogues >85% purity, 96 hour exposure
Method: as §1, §4

Ramos, NHL = assay: as above; conditions: Homo sapiens, Table 3, lantern-made analogues >85% purity, 96 hour exposure
Method: as §1, §4

[2] = tested on: HepG2, L540cy, Ramos, U266, HL60, HL60/RV cell lines; assay: In vitro assays - TubOEt analogues, statements across the cell line panel; conditions: Table 3 cell lines, 96 hour exposure
Method: as §1, §4

[3] = Table 2, free drug, 96 hour exposure
[4] = Table 3, lantern-made analogues >85% purity, 96 hour exposure
[5] = Table 1 (examples), free drug, 96 hours

SMILES	potency relative to tubulysin M (7), in words [1]	IC50 (L540cy, HL; [3]) [nM]	IC50 (HL60, AML; [3]) [nM]	IC50 (HL60/RV, MDR + AML; [3]) [nM]	IC50 (L428, MDR + HL; Table 2, 96 hour exposure) [nM]	IC50 (Karpas299, ALCL; Table 2, 96 hour exposure) [nM]	IC50 (U266 MM) [nM]	IC50 (HepG2, HCC) [nM]	IC50 (Ramos, NHL) [nM]	potency / cytotoxicity of TubOEt analogues, in words [2]	IC50 (L540cy, HL; [4]) [nM]	IC50 (HL60, AML; [4]) [nM]	IC50 (HL60/RV, MDR + AML; [4]) [nM]	further results
C=CCO[C@H](C[C@H](C(C)C)N(C)C(=O)[C@@H](NC(=O)[C@H]1CCCCN1C)[C@@H](C)CC)c1nc(C(=O)N[C@@H](Cc2ccccc2)C[C@H](C)C(=O)O)cs1 [Compound 177, (2S,4R)-4-(2-((1R,3R)-1-(allyloxy)-3-((2S,3S)—N,3-dimethyl-2-((R)-1-methylpiperidine-2-carboxamido)pentanamido)-4-methylpentyl)thiazole-4-carboxamido)-2-methyl-5-phenylpentanoic acid]	comparable potency	0.12	0.1	9	0.15	0.02								
CC[C@H](C)[C@H](NC(=O)[C@H]1CCCCN1C)C(=O)N(C)[C@H](C[C@@H](OCc1ccccc1)c1nc(C(=O)N[C@@H](Cc2ccccc2)C[C@H](C)C(=O)O)cs1)C(C)C [Compound 179, (2S,4R)-4-(2-((1R,3R)-1-(benzyloxy)-3-((2S,3S)—N,3-dimethyl-2-((R)-1-methylpiperidine-2-carboxamido)pentanamido)-4-methylpentyl)thiazole-4-carboxamido)-2-methyl-5-phenylpentanoic acid]	attenuated in potency	0.4	0.4	24	0.57	0.08								
CC[C@H](C)[C@H](NC(=O)[C@H]1CCCCN1C)C(=O)N(C)[C@H](C[C@@H](OC(=O)CC(C)(C)C)c1nc(C(=O)N[C@@H](Cc2ccccc2)C[C@H](C)C(=O)O)cs1)C(C)C [Compound 137, (2S,4R)-4-(2-((1R,3R)-3-((2S,3S)—N,3-dimethyl-2-((R)-1-methylpiperidine-2-carboxamido)pentanamido)-1-((3,3-dimethylbutanoyl)oxy)-4-methylpentyl)thiazole-4-carboxamido)-2-methyl-5-phenylpentanoic acid]	reduced potency	0.7	0.7	47	0.93	0.18								
C=C(C)CO[C@H](C[C@H](C(C)C)N(C)C(=O)[C@@H](NC(=O)[C@H]1CCCCN1C)[C@@H](C)CC)c1nc(C(=O)N[C@@H](Cc2ccccc2)C[C@H](C)C(=O)O)cs1 [Compound 176, (2S,4R)-4-(2-((1R,3R)-3-((2S,3S)—N,3-dimethyl-2-((R)-1-methylpiperidine-2-carboxamido)pentanamido)-4-methyl-1-((2-methylallyl)oxy)pentyl)thiazole-4-carboxamido)-2-methyl-5-phenylpentanoic acid]	comparable potency	0.06	0.07	6	0.12	0.12								
CCO[C@H](C[C@H](C(C)C)N(C)C(=O)[C@@H](NC(=O)[C@H]1CCCCN1C)[C@@H](C)OC(C)(C)C)c1nc(C(=O)N[C@@H](Cc2ccccc2)C[C@H](C)C(=O)O)cs1 [Compound 215, (2S,4R)-4-(2-((1R,3R)-3-((2S,3R)-3-(tert-butoxy)-N-methyl-2-((R)-1-methylpiperidine-2-carboxamido)butanamido)-1-ethoxy-4-methylpentyl)thiazole-4-carboxamido)-2-methyl-5-phenylpentanoic acid]							0.1	1	0.2	significantly more potent	0.2	1	33	
CCO[C@H](C[C@H](C(C)C)N(C)C(=O)[C@@H](NC(=O)[C@H]1CCCCN1C)C1CCOCC1)c1nc(C(=O)N[C@@H](Cc2ccccc2)C[C@H](C)C(=O)O)cs1 [Compound 210, (2S,4R)-4-(2-((1R,3R)-1-ethoxy-4-methyl-3-((S)—N-methyl-2-((R)-1-methylpiperidine-2-carboxamido)-2-(tetrahydro-2H-pyran-4-yl)acetamido)pentyl)thiazole-4-carboxamido)-2-methyl-5-phenylpentanoic acid]							> 1000	> 1000	> 1000	inactive against all cell lines tested	> 1000	> 1000	> 1000	
CCO[C@H](C[C@H](C(C)C)N(C)C(=O)[C@@H](NC(=O)[C@H]1CCCCN1C)[C@@H](C)CC)c1nc(C(=O)N[C@@H](Cc2ccccc2)C[C@H](C)C(=O)O)cs1 [Compound 41, (2S,4R)-4-(2-((1R,3R)-3-((2S,3S)—N,3-dimethyl-2-((R)-1-methylpiperidine-2-carboxamido)pentanamido)-1-ethoxy-4-methylpentyl)thiazole-4-carboxamido)-2-methyl-5-phenylpentanoic acid]														potency on each of the cell lines, in words ([1]; Table 1 (examples) cell lines, 96 hours): trended more potent; IC50 (L540cy, HL; Table 1 (examples), free drug): 0.05 nM; IC50 (HL60, AML; [5]): 0.05 nM; IC50 (HL60/RV, MDR + AML; [5]): 5 nM; IC50 (L428, MDR + HL; Table 1 (examples), 96 hours): 0.14 nM; IC50 (Karpas299, ALCL; Table 1 (examples), 96 hours): 0.05 nM
CCO[C@H](C[C@H](C(C)C)N(C)C(=O)[C@@H](NC(=O)[C@H]1[C@@H]2CC[C@@H](C2)N1C)[C@@H](C)CC)c1nc(C(=O)N[C@@H](Cc2ccccc2)C[C@H](C)C(=O)O)cs1 [Compound 219, (2S,4R)-4-(2-((1R,3R)-3-((2S,3S)—N,3-dimethyl-2-((1S,3R,4R)-2-methyl-2-azabicyclo[2.2.1]heptane-3-carboxamido)pentanamido)-1-ethoxy-4-methylpentyl)-thiazole-4-carboxamido)-2-methyl-5-phenylpentanoic acid]							8	19	8	decrease in the observed cytotoxicity	6	25	> 1000	
CCO[C@H](C[C@H](C(C)C)N(C)C(=O)[C@@H](NC(=O)C12CC(CCN1C)C2)[C@@H](C)CC)c1nc(C(=O)N[C@@H](Cc2ccccc2)C[C@H](C)C(=O)O)cs1 [Compound 217, (2S,4R)-4-(2-((1R,3R)-3-((2S,3S)—N,3-dimethyl-2-(2-methyl-2-azabicyclo[3.1.1]heptane-1-carboxamido)pentanamido)-1-ethoxy-4-methylpentyl)thiazole-4-carboxamido)-2-methyl-5-phenylpentanoic acid]							0.4	2	0.4	most potent compounds obtained in this series	1	4	244	
C#CCO[C@H](C[C@H](C(C)C)N(C)C(=O)[C@@H](NC(=O)[C@H]1CCCCN1C)[C@@H](C)CC)c1nc(C(=O)N[C@@H](Cc2ccccc2)C[C@H](C)C(=O)O)cs1 [Compound 178, (2S,4R)-4-(2-((1R,3R)-3-((2S,3S)—N,3-dimethyl-2-((R)-1-methylpiperidine-2-carboxamido)pentanamido)-4-methyl-1-(prop-2-yn-1-yloxy)pentyl)thiazole-4-carboxamido)-2-methyl-5-phenylpentanoic acid]	attenuated in potency	0.17	0.2	27	0.41	0.05								
